“And” between values parts separate entries of the source, which are not always exact repeats. Identical values can stand only once.
Columns and labels:
Format in all cases: functional
[1] = system: Mus musculus; experiment: Number of survival out of 5 mice on day 28 at the dose of 96 mg/kg/day orally; details: route oral
[2] = system: Mus musculus; experiment: Mean survival time calculated for the mice which died during 28 day observation period at the dose of 96 mg/kg/day orally; details: route oral
[3] = system: Mus musculus; experiment: Mean survival time calculated for the mice which died during 28 day observation period at the dose of 48 mg/kg/day i.m.; details: route intramuscular
[4] = system: Mus musculus; experiment: Number of survival out of 5 mice on day 28 at the dose of 48 mg/kg/day orally; details: route oral
[5] = system: Mus musculus; experiment: In vivo antimalarial activity against Plasmodium yoelii in Swiss mice (Mus musculus) on day 4 at the dose of 96 mg/kg/day intramuscular.
[6] = system: Mus musculus; experiment: Number of survival out of 5 mice on day 28 at the dose of 96 mg/kg/day i.m.; details: route intramuscular
[7] = system: Mus musculus; experiment: In vivo antimalarial activity against Plasmodium yoelii in Swiss mice (Mus musculus) on day 4 at the dose of 96 mg/kg/day orally; details: route oral
[8] = system: Mus musculus; experiment: Mean survival time calculated for the mice which died during 28 day observation period at the dose of 96 mg/kg/day i.m.; details: route intramuscular
[9] = system: Mus musculus; experiment: In vivo antimalarial activity against Plasmodium yoelii in Swiss mice (Mus musculus) on day 4 at the dose of 48 mg/kg/day intramuscular.
[10] = system: Mus musculus; experiment: Mean survival time calculated for the mice which died during 28 day observation period at the dose of 48 mg/kg/day orally; details: route oral
[11] = system: Mus musculus; experiment: Number of survival out of 5 mice on day 28 at the dose of 48 mg/kg/day i.m.; details: route intramuscular
[12] = system: Mus musculus; experiment: In vivo antimalarial activity against Plasmodium yoelii in Swiss mice (Mus musculus) on day 4 at the dose of 48 mg/kg/day orally; details: route oral
[13] = system: Mus musculus; experiment: Mean survival time calculated for the mice which died during 28 day observation period at the dose of 24 mg/kg/day i.m.; details: route intramuscular
[14] = system: Mus musculus; experiment: In vivo antimalarial activity against Plasmodium yoelii in Swiss mice (Mus musculus) on day 4 at the dose of 24 mg/kg/day intramuscular.
[15] = system: Mus musculus; experiment: Number of survival out of 5 mice on day 28 at the dose of 24 mg/kg/day i.m.; details: route intramuscular
[16] = system: Mus musculus; experiment: Mean survival time calculated for the mice which died during 28 day observation period at the dose of 24 mg/kg/day orally; details: route oral
[17] = system: Mus musculus; experiment: Number of survival out of 5 mice on day 28 at the dose of 24 mg/kg/day orally; details: route oral
[18] = system: Mus musculus; experiment: In vivo antimalarial activity against Plasmodium yoelii in Swiss mice (Mus musculus) on day 4 at the dose of 24 mg/kg/day orally; details: route oral

SMILES	Activity [1]	MST [2]	MST [3]	Activity [4]	Suppression [5]	Activity [6]	Suppression [7]	MST [8]	Suppression [9]	MST [10]	Activity [11]	Suppression [12]	MST [13]	Suppression [14]	Activity [15]	MST [16]	Activity [17]	Suppression [18]
C=C(CCC(O)c1ccc(-c2ccccc2)cc1)C1COC2(CCCCC2)OO1 (stereo not drawn)	0	13.8	10.6	0	96.4%	4	100%	14	81%	11.2	0	77.5%						
C=C(CCC(O)c1ccccc1)C1COC2(OO1)C1CC3CC(C1)CC2C3 (stereo not drawn)	2	16.57		0	100%	5	100%	>28 and 15.57	98.1%	9	2	62.4%						
C=C(CCC(O)c1ccc(Cl)cc1)C1COC2(CCCCC2)OO1 (stereo not drawn)	0	10.2	16		100%	5	88.8%	>28	97.1%		0							
C=C(CCC(O)c1ccc(-c2ccccc2)cc1)C1COC2(CCCC2)OO1 (stereo not drawn)	0	16	16.75	0	100%	2	100%	17.33	100%	12	0	94.3%	11.8	85.2%	0			
C=C(CCC(O)c1cccc2ccccc12)C1COC2(CCCCC2)OO1 (stereo not drawn)	0	13	14.2		100%	4	68.4%	16	93.4%		0							
C=C(CCC(O)c1cccc2ccccc12)C1COC2(OO1)C1CC3CC(C1)CC2C3 (stereo not drawn)	3	17		2	72.13%	2	100%	15.33		15.57		100%				10.4	0	87.1%
C=C(CCC(O)c1cccc2ccccc12)C1COC2(CCCC2)OO1 (stereo not drawn)	0	10.4	15.75		100%	1	81.3%	14.75	93.4%		0							
C=C(CCC(O)c1ccccc1)C1COC2(CCCC2)OO1 (stereo not drawn)	0	8.2	12.6		100%	2		14.8	100%		0			67.7%				
C=C(CCC(O)c1ccc(-c2ccccc2)cc1)C1COC2(OO1)C1CC3CC(C1)CC2C3 (stereo not drawn)	3	17.33		2	79%	3	100%	14.5		17.57		100%				8.8	0	90.4%
C=C(CCC(O)c1ccc(Cl)cc1)C1COC2(OO1)C1CC3CC(C1)CC2C3 (stereo not drawn)	5	>28		0	100%	5	100%	>28 and 15	78.9%	10.2	0	90.8%						
C=C(CCC(O)c1ccc(Cl)cc1)C1COC2(CCCC2)OO1 (stereo not drawn)	0	7.4	14.57		100%	2	29.6%	14.57	98.4%		0							
C=C(CCC(O)c1ccccc1)C1COC2(CCCCC2)OO1 (stereo not drawn)		11.6	12.6		94.5%	0	65%	14.4	90.5%		0						0	
C=C(C)C(O)CCC(=C)C1COC2(OO1)C1CC3CC(C1)CC2C3 (stereo not drawn)			14.8		100%	2		19.57	100%		0		12.2	67.7%	0			
C[C@@H]1CC[C@H]2[C@@H](C)C(=O)O[C@@H]3O[C@@]4(C)CC[C@@H]1[C@]32OO4 [ARTEMISININ]								>28	100%	16	5			100%	4			
CCN(CC)CCCC(C)Nc1ccnc2cc(Cl)ccc12 (stereo not drawn) [CHLOROQUINE]	4	20		4			100%			17.6		100%						
